Test results: PubChem BioAssay AID2060902 (Molecular Pharmacology Branch, DTP, NCI, 2025)

System: 485368-065-R3-J5-PDC spheroids with HUVEC/MSC, viability
Experiment: Anticancer human tumor 485368-065-R3-J5-PDC patient-derived pancreatic carcinoma cell line growth inhibition [RAS]
Details: for IC50: curve of first compound; for viability, T/C: stronger effect = lower value
Outline: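 Multi-cell-type spheroids: tumor cells plus HUVEC endothelial cells and mesenchymal stem cells. RAS-pathway inhibitors were combined with targeted agents, each dosed in half-log steps down from clinical Cmax, or from 10 microM when Cmax was unknown.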

[1] = second compound 0.000949 µM, first compound 0.00316 µM
[2] = second compound 0.000949 µM, first compound 0.01 µM
[3] = second compound 0.000949 µM, first compound 0.0316 µM
[4] = second compound 0.000949 µM, first compound 0.1 µM
[5] = second compound 0.000949 µM, first compound 0.316 µM
[6] = second compound 0.000949 µM, first compound 1 µM
[7] = second compound 0.003 µM, first compound 0.00316 µM
[8] = second compound 0.003 µM, first compound 0.01 µM
[9] = second compound 0.003 µM, first compound 0.0316 µM
[10] = second compound 0.003 µM, first compound 0.1 µM
[11] = second compound 0.003 µM, first compound 0.316 µM
[12] = second compound 0.003 µM, first compound 1 µM
[13] = second compound 0.00949 µM, first compound 0.00316 µM
[14] = second compound 0.00949 µM, first compound 0.01 µM
[15] = second compound 0.00949 µM, first compound 0.0316 µM
[16] = second compound 0.00949 µM, first compound 0.1 µM
[17] = second compound 0.00949 µM, first compound 0.316 µM
[18] = second compound 0.00949 µM, first compound 1 µM
[19] = second compound 0.03 µM, first compound 0.00316 µM
[20] = second compound 0.03 µM, first compound 0.01 µM
[21] = second compound 0.03 µM, first compound 0.0316 µM
[22] = second compound 0.03 µM, first compound 0.1 µM
[23] = second compound 0.03 µM, first compound 0.316 µM
[24] = second compound 0.03 µM, first compound 1 µM
[25] = second compound 0.0949 µM, first compound 0.00316 µM
[26] = second compound 0.0949 µM, first compound 0.01 µM
[27] = second compound 0.0949 µM, first compound 0.0316 µM
[28] = second compound 0.0949 µM, first compound 0.1 µM
[29] = second compound 0.0949 µM, first compound 0.316 µM
[30] = second compound 0.0949 µM, first compound 1 µM
[31] = second compound 0.3 µM, first compound 0.00316 µM
[32] = second compound 0.3 µM, first compound 0.01 µM
[33] = second compound 0.3 µM, first compound 0.0316 µM
[34] = second compound 0.3 µM, first compound 0.1 µM
[35] = second compound 0.3 µM, first compound 0.316 µM
[36] = second compound 0.3 µM, first compound 1 µM
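Further: spheroids exposed to agents for seven days before readout.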

With `C=CC(=O)N1CCN(c2nc(OCC3CCCN3C)nc3c(F)c(-c4nc(N)cc(C)c4C(F)(F)F)c(Cl)cc23)C(C)C1` (stereo unspecified) + CCn1c(-c2cc(N3CCN(C)CC3)cnc2C(C)OC)c2c3cc(ccc31)-c1csc(n1)CC(NC(=O)C1CC1C)C(=O)N1CCCC(N1)C(=O)OCC(C)(C)C2 the IC50 (second compound 0.000949 µM) was under 3.16 nM, the IC50 (second compound 0.003 µM) was under 3.16 nM and the IC50 (second compound 0.00949 µM) was under 3.16 nM. It also gave an IC50 (second compound 0.03 µM) of under 3.16 nM, an IC50 (second compound 0.0949 µM) of under 3.16 nM and an IC50 (second compound 0.3 µM) of under 3.16 nM. The viability, T/C [1] was 32.9%, the viability, T/C [2] was 35.6% and the viability, T/C [3] was 36.7%. The viability, T/C [4] was 29.5%, the viability, T/C [5] was 30.1% and the viability, T/C [6] was 38.9%. It also gave a viability, T/C [7] of 23.4%, a viability, T/C [8] of 21.4% and a viability, T/C [9] of 21.2%. The viability, T/C [10] was 20.9%, the viability, T/C [11] was 20.9% and the viability, T/C [12] was 19.6%. It also gave a viability, T/C [13] of 17.3%, a viability, T/C [14] of 18.3% and a viability, T/C [15] of 15.8%. For the same molecule, the viability, T/C [16] was 15.6%, the viability, T/C [17] was 18% and the viability, T/C [18] was 15.2%. It also gave a viability, T/C [19] of 12.1%, a viability, T/C [20] of 11.4% and a viability, T/C [21] of 12.5%. It also gave a viability, T/C [22] of 12.9%, a viability, T/C [23] of 12.8% and a viability, T/C [24] of 15.7%. It also gave a viability, T/C [25] of 10%, a viability, T/C [26] of 12.6% and a viability, T/C [27] of 11.2%. The viability, T/C [28] was 9.36%, the viability, T/C [29] was 9.84% and the viability, T/C [30] was 12.7%. It also gave a viability, T/C [31] of 10.8%, a viability, T/C [32] of 9.38% and a viability, T/C [33] of 9%. The viability, T/C [34] was 8.35%, the viability, T/C [35] was 10.7% and the viability, T/C [36] was 11%.
In the case of `CC1(C)CCC(Nc2ncc(C(F)(F)F)c(-c3c[nH]c4c(P(C)(C)=O)c(C#N)ccc34)n2)CN1` (stereo unspecified) + CCn1c(-c2cc(N3CCN(C)CC3)cnc2C(C)OC)c2c3cc(ccc31)-c1csc(n1)CC(NC(=O)C1CC1C)C(=O)N1CCCC(N1)C(=O)OCC(C)(C)C2, the IC50 (second compound 0.000949 µM) is reported as under 0.949 nM, the IC50 (second compound 0.003 µM) is reported as under 0.949 nM and the IC50 (second compound 0.00949 µM) is reported as under 0.949 nM. It also gave an IC50 (second compound 0.03 µM) of under 0.949 nM, an IC50 (second compound 0.0949 µM) of under 0.949 nM and an IC50 (second compound 0.3 µM) of under 0.949 nM. For the same molecule, the viability, T/C (second compound 0.000949 µM, first compound 0.000949 µM) was 48.5%, the viability, T/C (second compound 0.000949 µM, first compound 0.003 µM) was 36.9% and the viability, T/C (second compound 0.000949 µM, first compound 0.00949 µM) was 26.8%. The viability, T/C (second compound 0.000949 µM, first compound 0.03 µM) was 31%, the viability, T/C (second compound 0.000949 µM, first compound 0.0949 µM) was 31.2% and the viability, T/C (second compound 0.000949 µM, first compound 0.3 µM) was 30.4%. For the same molecule, the viability, T/C (second compound 0.003 µM, first compound 0.000949 µM) was 24.4%, the viability, T/C (second compound 0.003 µM, first compound 0.003 µM) was 26.2% and the viability, T/C (second compound 0.003 µM, first compound 0.00949 µM) was 24.3%. The viability, T/C (second compound 0.003 µM, first compound 0.03 µM) was 23.6%, the viability, T/C (second compound 0.003 µM, first compound 0.0949 µM) was 26.9% and the viability, T/C (second compound 0.003 µM, first compound 0.3 µM) was 27.4%. For the same molecule, the viability, T/C (second compound 0.00949 µM, first compound 0.000949 µM) was 17.1%, the viability, T/C (second compound 0.00949 µM, first compound 0.003 µM) was 19% and the viability, T/C (second compound 0.00949 µM, first compound 0.00949 µM) was 19.6%. It also gave a viability, T/C (second compound 0.00949 µM, first compound 0.03 µM) of 19.9%, a viability, T/C (second compound 0.00949 µM, first compound 0.0949 µM) of 24.5% and a viability, T/C (second compound 0.00949 µM, first compound 0.3 µM) of 21.1%. It also gave a viability, T/C (second compound 0.03 µM, first compound 0.000949 µM) of 14%, a viability, T/C (second compound 0.03 µM, first compound 0.003 µM) of 18.8% and a viability, T/C (second compound 0.03 µM, first compound 0.00949 µM) of 17.4%. It also gave a viability, T/C (second compound 0.03 µM, first compound 0.03 µM) of 18.6%, a viability, T/C (second compound 0.03 µM, first compound 0.0949 µM) of 22.4% and a viability, T/C (second compound 0.03 µM, first compound 0.3 µM) of 21.2%. For the same molecule, the viability, T/C (second compound 0.0949 µM, first compound 0.000949 µM) was 13.2%, the viability, T/C (second compound 0.0949 µM, first compound 0.003 µM) was 15.9% and the viability, T/C (second compound 0.0949 µM, first compound 0.00949 µM) was 15.7%. The viability, T/C (second compound 0.0949 µM, first compound 0.03 µM) was 17%, the viability, T/C (second compound 0.0949 µM, first compound 0.0949 µM) was 20.2% and the viability, T/C (second compound 0.0949 µM, first compound 0.3 µM) was 23.2%. The viability, T/C (second compound 0.3 µM, first compound 0.000949 µM) was 11.7%, the viability, T/C (second compound 0.3 µM, first compound 0.003 µM) was 15.8% and the viability, T/C (second compound 0.3 µM, first compound 0.00949 µM) was 15.4%. For the same molecule, the viability, T/C (second compound 0.3 µM, first compound 0.03 µM) was 21.9%, the viability, T/C (second compound 0.3 µM, first compound 0.0949 µM) was 19.4% and the viability, T/C (second compound 0.3 µM, first compound 0.3 µM) was 22.6%.
`C=CC(=O)Nc1cc(Nc2nccc(-c3cn(C)c4ccccc34)n2)c(OC)cc1N(C)CCN(C)C` + CCn1c(-c2cccnc2C(C)OC)c2c3cc(ccc31)N1CCOC(CC(NC(=O)C(C(C)C)N(C)C(=O)C3(F)CCN(C(=O)C#CC(C)(C)N(C)C)CC3)C(=O)N3CCCC(N3)C(=O)OCC(C)(C)C2)C1 gave an IC50 (second compound 0.000949 µM) of over 1000 nM, an IC50 (second compound 0.003 µM) of over 1000 nM and an IC50 (second compound 0.00949 µM) of over 1000 nM. For the same molecule, the IC50 (second compound 0.03 µM) was over 1000 nM, the IC50 (second compound 0.0949 µM) was over 1000 nM and the IC50 (second compound 0.3 µM) was over 1000 nM. The viability, T/C [1] was 104%, the viability, T/C [2] was 94.9% and the viability, T/C [3] was 99%. The viability, T/C [4] was 91%, the viability, T/C [5] was 101% and the viability, T/C [6] was 105%. The viability, T/C [7] was 87.5%, the viability, T/C [8] was 95.3% and the viability, T/C [9] was 102%. It also gave a viability, T/C [10] of 93.7%, a viability, T/C [11] of 113% and a viability, T/C [12] of 115%. It also gave a viability, T/C [13] of 88.7%, a viability, T/C [14] of 95.7% and a viability, T/C [15] of 98.4%. It also gave a viability, T/C [16] of 102%, a viability, T/C [17] of 117% and a viability, T/C [18] of 103%. For the same molecule, the viability, T/C [19] was 89.4%, the viability, T/C [20] was 114% and the viability, T/C [21] was 92.5%. It also gave a viability, T/C [22] of 98%, a viability, T/C [23] of 105% and a viability, T/C [24] of 110%. It also gave a viability, T/C [25] of 104%, a viability, T/C [26] of 105% and a viability, T/C [27] of 105%. It also gave a viability, T/C [28] of 107%, a viability, T/C [29] of 110% and a viability, T/C [30] of 97.6%. The viability, T/C [31] was 101%, the viability, T/C [32] was 99.7% and the viability, T/C [33] was 106%. For the same molecule, the viability, T/C [34] was 112%, the viability, T/C [35] was 106% and the viability, T/C [36] was 101%.
